Experimental data reported in patent US20210292807A1, “METHOD FOR TESTING ANTIMICROBIAL SUSCEPTIBILITY” (priority 2017, published 2021).
≈ marks a conversion by molar mass, not a printed value. Where two headings read alike, the source gives them in different places.

Legend:
Staphylococcus aureus [1] = assay: Broth microdilution (BMD) MIC of Staphylococcus aureus isolates; assay type: cell-based
Text: The acoustic flow cytometry assisted method of the present invention was employed essentially as described in the previous working examples to determine susceptibility of Staphylococcus aureus to both cefoxitin and oxacillin. Susceptibility classification into S/NS and quantitative MIC values obtained using the acoustic flow cytometry assisted method were compared to results obtained using the conventional broth microdilution (BMD) method. Results are shown in Table 4 (Panels A and B) below and in FIGS. 9-12.

Staphylococcus aureus [2] = assay: Acoustic flow cytometry-assisted susceptibility test (FAST) of Staphylococcus aureus isolates; assay type: cell-based; parameters: MIC dilution at which susceptibility-associated signature is observed by AFC: unit not given beside the values
Procedure: The material and methods utilized are briefly outlined herein below. The method used was similar to that outlined in the earlier examples albeit adjusted to allow for 3 hour incubation of Staphylococcus aureus to account for longer doubling times of Staphylococcus aureus relative to K. pneumoniae used in the previous examples.
Events were acquired by forward scatter and BL1 (515 nm-545 nm) using the Attune with voltages and thresholding set as follows: Forward Scatter Voltage: 3050; Forward Scatter Threshold: 3×1000 AND; Side Scatter Voltage: 2950; Side Scatter Threshold: IGNORE; BL1 Voltage: 1500; BL1 Threshold: 1×1000 AND.
Nine mL of MHB was aliquoted into twelve, 50 mL Falcon tubes. Each tube was labelled with the required final test concentration of antibiotic. […] Tubes were transferred to a 35° C. incubator to pre-warm.
One 1 mL of the overnight bacterial suspension was transferred into a 1.5 mL microcentrifuge tube and centrifuge at 7,800×g for about 5 minutes. The supernatant was discarded, and the pellet re-suspended in 1 mL of 0.1 μm filtered HBSS. This step was optionally repeat.
About 900 μL of HBSS was dispended into three 1.5 mL tubes—two clear tubes and one amber tube. About 100 μL of the bacterial suspension was inoculated into the first tube (clear) and serially dilute to reach 1:1000 by the third tube (amber). About 1 μl of SYTO 9 (5 μM final concentration) was added to the third tube. The dye was incubated, protected from light, for at least 5 minutes (individual sample types were optionally required with longer incubations) and then the Stained Control on the Attune acoustic flow cytometer instrument was read
The event density (events/μL) from your stained control aliquots was used to calculate the inoculum volume required to produce a 5.5×10^5 bacteria mL-1 in 10 mL of MHB. For example, (400 events/A)/(10 mL×550000)=7.3 μL, rounded up to the closest 10 μL.
The required volume of bacterial suspension was added from the overnight culture into each 50 ml tube with 9 ml of preheated MHB. Optionally incubate with shaking and protected from light, at 100 RPM at 35° C. for 60 minutes.
MHB (0.1 μm filtered) was used to dilute the antibiotics in this preparation. About one aliquot of antibiotic was removed from the −20° C. freezer and equilibrated to room temperature by ambient heat exchange, and diluted to reach a range of working stock concentrations that were are ten times the desired test concentrations.
Once the 60-minute incubation of bacterial suspension was complete, about 1 mL of 10× antibiotic stocks were added to tubes containing bacterial suspensions to reach final desired test concentrations (1 ml antibiotic and total volume 10 ml). The 50 mL tubes were returned to the incubator and incubated, by shaking at 100 RPM at 35° C., for a further 3 hours.
After 3 hours, about 1 mL suspension was harvested from each tube and transferred to a 1.5 mL clear microcentrifuge tube (marked with the corresponding antibiotic concentration), then centrifuge at 7,800×g for 5 minutes. The supernatant discarded and the pellet resuspended in 1 mL of 0.1 μm filtered HBSS. This wash step was optionally repeated.
Using the computer connected to the Attune, new samples were created ready for the collection of data. That the following parameters were set: Sensitivity: High Sensitivity; Flow Rate: 25 μL/minute; Acquisition Volume: 125 μL; Events Collected: No less than 20,000 from all gates, Time: 1 minute.
About 899 μL HBSS was dispensed into one 1.5 mL amber tube per sample. About 100 μL of suspension per tube was added to achieve a 1 in 10 dilution. About 1 μl of SYTO 9 was added to each tube and the tube vortexed for no more than 2 seconds (over vortexing can lead to bacterial clustering and/or attachment to tube walls).
Samples were placed on the SIP and acquired, in technical triplicate, as per the parameters outlined above. […]

Klebsiella isolates = assay: Acoustic flow cytometry-assisted susceptibility test (FAST), MICFAST and S/NS, Klebsiella isolates; assay type: cell-based, Klebsiella pneumoniae, Klebsiella oxytoca; parameters: MICBMD / MICFAST data point (FIG. 8): unit not given here; details: 10 of 14 K. pneumoniae isolates
Procedure: A 1 mL aliquot of bacterial suspension was centrifuged, washed and resuspended in 1 mL filtered Hank's Buffered Salt Solution (HBSS; comprising about 0.137 M NaCl, about 5.4 mM KCl, about 0.25 mM Na2HPO4, about 0.1 g Glucose, about 0.44 mM KH2PO4, 1.3 mM CaCl2), 1.0 mM MgSO4, about 1.3 mM CaCl2), 1.0 mM MgSO4, and about 4.2 mM NaHCO3) and diluted in series (e.g., in a 1:10 serial dilution) to a final 1:1000 dilution.
One μL (microliter) of SYTO 9 stain (e.g., ThermoFisher Scientific) working stock solution was added to the final dilution at a final concentration of 5 μM and incubated for 5 minutes before counting bacterial events by acoustic flow cytometer (AFC) (Attune, ThermoFisher, Eugene, Oreg., USA), which was used to prepare a standardised inoculum density for susceptibility testing.
An aliquot of bacterial suspension was added to 50 mL centrifuge tubes (Corning, N.Y.) containing 9 mL of pre-warmed (37° C.) filtered MHB to produce a final density of 5×10^5-1×10^6 bacteria per mL. This suspension was incubated at 37° C. with shaking at 100 RPM for 30 minutes to obtain an actively dividing culture. An aliquot of antibiotic working solution from the previously described dilution series (appropriate to the concentration tested) was then added to each tube before a further 30-minute incubation with shaking, during which time a microbroth dilution (MBD) plate was prepared for overnight incubation at 37° C. as previously described in Clinical and Laboratory Standards Institute (2015) Performance Standards for Antimicrobial Susceptibility Testing: Informational Supplement. CLSI document M100-S25. Clinical and Laboratory Standards Institute, 950, West Valley Road, Suite 2500, Wayne, Pa., 19087, USA.
One millilitre of bacterial suspension from each antibiotic concentration was harvested by centrifugation at 7800×g for 5 minutes, washed and diluted 1:10 in filtered HBSS in a light-impermeable microcentrifuge tube, then stained with SYTO 9 stain at a final concentration of 5 μM, and incubated for 5 min before AFC sampling. Hoechst 33342 dye (NucBlue, Thermo Fisher Scientific, Eugene, Oreg., USA) and a SYTO 9/propidium iodide (PI) combination (Thermo Fisher Scientific) were used in a series of replicate experiments.
The acoustic flow cytometer employed was Attune acoustic flow cytometer (Thermo Fisher Scientific), having installed therein a 488 nm blue laser with a 530/30 nm filter on the photomultiplier tube for measuring fluorescence of cells assayed. Alternatively, the Attune NxT acoustic flow cytometer (Thermo Fisher Scientific) can be employed. AFC was calibrated at the beginning of each acquisition session using fluorescently labelled size calibration beads, in accordance with the manufacturer's instructions (ThermoFisher Scientific). The AFC settings were as follows: Forward Scatter (FSC) voltage 3100, FSC threshold 4×1000 AND, blue laser 1 (BL1—530/30 nm) voltage 1900, BL1 threshold 1×1000 AND, high sensitivity, flow rate 25 μL/minute, and an acquisition volume of 125 μL. Acquisition was halted after either collection of 20,000 events across all gates, or after 3 minutes, with each sample acquired in technical triplicate.
Collected data was exported in the FCS 3.0 file format and analysed in Flow v10.0 (FlowJo LLC, Ashland, Oreg., USA) by a single user, blinded to the MIC results by BMD (MICBMD).
Subsequent to quantitative MICFAST determination, the acoustic flow cytometer data were re-analysed in silico to produce a limited sub-set for qualitative susceptibility determination. The six antibiotic dilutions (0 mg/L, 0.25 mg/L, 1 mg/L, 2 mg/L, 4 mg/L and 16 mg/L) most relevant to qualitative susceptibility assessment were used. In silico analysis was restricted to the first technical triplicate of each recorded sample. Gating strategies remained consistent, with the addition of a gate restricting analysis to only those events recorded in the first 60 seconds of acquisition.

K. pneumoniae = assay: AFC susceptibility-associated signature for ceftriaxone and gentamicin (FIG. 19); assay type: cell-based, Klebsiella pneumoniae
Text: FIG. 19 provides graphical and pictorial representations showing rapid determination of susceptibly of bacteria to antimicrobial using the using the AFC-assisted susceptibility testing method of the invention.
This example sets out to investigate utility of the AFC-assisted susceptibility testing method of the invention as a clinical test and tool which can inform use antimicrobial choice in the early hours of sepsis presentation, e.g., by applying the AFC-assisted susceptibility testing method directly to blood cultures.

[3] = S. aureus isolate ATCC 29213, MSSA
[4] = S. aureus isolate W0096111, MSSA
[5] = S. aureus isolate W0226111, MSSA
[6] = S. aureus isolate W0236111, MSSA
[7] = S. aureus isolate W0296111, MSSA
[8] = S. aureus isolate W0816111, MSSA
[9] = S. aureus isolate W0866111, MRSA
[10] = S. aureus isolate W6496111, MSSA
[11] = S. aureus isolate W9196111, MSSA
[12] = S. aureus isolate W9346111, MRSA
[13] = S. aureus isolate W . . . 6111, MRSA
[14] = S. aureus isolate WACC 98, MRSA

With `Cc1onc(-c2ccccc2)c1C(=O)N[C@@H]1C(=O)N2[C@@H]1SC(C)(C)[C@@H]2C(=O)O` [Oxacillin, oxacillin] the MIC (BMD) (Staphylococcus aureus [1]; [3]) was 0.25 µg/mL, the MIC (BMD) (Staphylococcus aureus [1]; [4]) was 0.25 µg/mL and the MIC (BMD) (Staphylococcus aureus [1]; [5]) was 0.25 µg/mL. It also gave an MIC (BMD) (Staphylococcus aureus [1]; [6]) of 0.25 µg/mL, an MIC (BMD) (Staphylococcus aureus [1]; [7]) of 0.25 µg/mL and an MIC (BMD) (Staphylococcus aureus [1]; [8]) of 0.25 µg/mL. The MIC (BMD) (Staphylococcus aureus [1]; [9]) was 16 µg/mL, the MIC (BMD) (Staphylococcus aureus [1]; [10]) was 1 µg/mL and the MIC (BMD) (Staphylococcus aureus [1]; [11]) was 0.25 µg/mL. The MIC (BMD) (Staphylococcus aureus [1]; [12]) was 32 µg/mL, the MIC (BMD) (Staphylococcus aureus [1]; [13]) was 8 µg/mL and the MIC (BMD) (Staphylococcus aureus [1]; [14]) was 256 µg/mL. The “MIC dilution at which susceptibility-associated signature is observed by AFC” value (Staphylococcus aureus [2]; S. aureus ATCC 29213) was 0.25, the “MIC dilution at which susceptibility-associated signature is observed by AFC” value (Staphylococcus aureus [2]; S. aureus WACC 98) was 256 and the MIC (FAST) (Staphylococcus aureus [2]; [3]) was no more than 1 µg/mL. The MIC (FAST) (Staphylococcus aureus [2]; [4]) was no more than 1 µg/mL, the MIC (FAST) (Staphylococcus aureus [2]; [5]) was no more than 1 µg/mL and the MIC (FAST) (Staphylococcus aureus [2]; [6]) was no more than 1 µg/mL. For the same compound, the MIC (FAST) (Staphylococcus aureus [2]; [7]) was no more than 1 µg/mL, the MIC (FAST) (Staphylococcus aureus [2]; [8]) was no more than 1 µg/mL and the MIC (FAST) (Staphylococcus aureus [2]; [9]) was 16 µg/mL (≈ 39.9 µM). The MIC (FAST) (Staphylococcus aureus [2]; [10]) was 1 µg/mL (≈ 2.49 µM), the MIC (FAST) (Staphylococcus aureus [2]; [11]) was no more than 1 µg/mL and the MIC (FAST) (Staphylococcus aureus [2]; [12]) was 32 µg/mL (≈ 79.7 µM). The MIC (FAST) (Staphylococcus aureus [2]; [13]) was 16 µg/mL (≈ 39.9 µM), the MIC (FAST) (Staphylococcus aureus [2]; [14]) was 256 µg/mL (≈ 638 µM) and the “events remaining in Unexposed Cell Morphotype gate (FIG. 14B)” value (Staphylococcus aureus [2]; clinical methicillin resistant S. aureus WACC 98, at EUCAST breakpoint 8 mg/L) was “above the 10% threshold for MICFAST”. The “events remaining in Unexposed Cell Morphotype gate (FIG. 14A)” value (Staphylococcus aureus [2]; control methicillin susceptible S. aureus ATCC 25912, oxacillin concentration range) was “remains below the 10% MICFAST threshold”.

`CO/N=C(\C(=O)N[C@@H]1C(=O)N2C(C(=O)O)=C(CSc3nc(=O)c(=O)[nH]n3C)CS[C@H]12)c1csc(N)n1` [ceftriaxone] was tested, and the “MICBMD / MICFAST data point (FIG. 8)” value (Klebsiella isolates) was 256 and the MIC (K. pneumoniae; Klebsiella pneumoniae, K. pneumoniae susceptible type strain SSCC 43358, read-out: isolate's MIC (FIG. 19A)) was 0.25 µg/mL (≈ 0.451 µM).

In the case of gentamicin, the MIC (K. pneumoniae; K. pneumoniae isolate 244606) is reported as 1 µg/mL.
